# Counter-ions that a name gives are not always drawn. Like-named read-outs stand apart in the source and are kept apart here.
# How the values were obtained:
# [1] = target: T1, activated human blood coagulation factor X (Homo sapiens, UniProt P00742); assay: Determination of activity of inhibiting the activated blood coagulation factor X; format: biochemical; conditions: for IC50: read-out: Activity of inhibiting activated blood coagulation factor X (pIC50) (converted)
# T1 construct: purchased Enzyme Research Co
# T1 sequence (P00742 235-488 limits assumed): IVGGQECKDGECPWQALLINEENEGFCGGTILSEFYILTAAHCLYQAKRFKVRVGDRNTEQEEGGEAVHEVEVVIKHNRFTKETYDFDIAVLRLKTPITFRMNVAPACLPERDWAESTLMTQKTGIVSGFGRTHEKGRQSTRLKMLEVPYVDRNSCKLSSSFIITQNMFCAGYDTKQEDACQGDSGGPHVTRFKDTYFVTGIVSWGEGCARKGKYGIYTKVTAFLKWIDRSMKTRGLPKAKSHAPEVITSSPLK
# T1 sequence (P00742 41-179 partner limits assumed): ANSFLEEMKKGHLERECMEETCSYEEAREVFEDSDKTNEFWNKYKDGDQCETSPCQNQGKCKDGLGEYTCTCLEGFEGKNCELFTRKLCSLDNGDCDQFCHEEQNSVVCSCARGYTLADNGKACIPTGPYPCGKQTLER
# Experimental: 130 μl of 100 mM Tris-HCl buffer adjusted to pH 8.4 was added to 10 μl of an aqueous solution of a compound to be tested. Then 10 μl of a 0.5 unit/ml solution of activated human blood coagulation factor X (a product of Enzyme Research Co.) in Tris-HCl buffer hydrochloride of pH 8.4 was added to the resultant mixture. After the incubation at room temperature for 10 minutes, 50 μl of a solution of N-benzoyl-L-isoleucyl-L-glutamyl-glycyl-L-arginyl-p-nitroanilide hydrochloride (a product of Peptide Institute, Inc.) adjusted to 0.8 mM with Tris-HCl buffer (pH 8.4) was added thereto. The absorbance was determined and then the initial reaction rate was determined. A control was prepared in the same manner as that described above except that the solution of the compound to be tested was replaced with 10 μl of Tris-HCl buffer adjusted to pH 8.4.
# human thrombin = target: T2, human thrombin (Homo sapiens, UniProt P00734); assay: Determination of thrombin-inhibiting activity; format: biochemical; conditions: for IC50: read-out: Thrombin-inhibiting activity (pIC50) (converted)
# T2 construct: human thrombin (a product of SIGMA Co.); purchased SIGMA Co
# Experimental: 130 μl of 100 mM Tris-HCl buffer adjusted to pH 8.4 was added to 10 μl of an aqueous solution of a test compound. Then 10 μl of a solution of human thrombin (a product of SIGMA Co.) adjusted to 2 units/ml with Tris-HCl buffer of pH 8.4 was added to the resultant mixture. […] The absorbance was determined and then the initial reaction rate was determined. A control was prepared in the same manner as that described above except that the solution of the compound to be tested was replaced with 10 μl of tris hydrochloride buffer adjusted to pH 8.4.
# [2] = Table 1, negative logarithm of concentration inhibiting 50% of initial rate, Tris-HCl pH 8.4, room temperature
# [3] = Table 1, negative logarithm of concentration inhibiting 50% of initial rate, substrate S-2238, Tris-HCl pH 8.4
# [4] = Table 2, same manner as Example 93
# [5] = Table 2, same manner as Example 94
smiles,measurement,setting,value
"N=C(N)c1ccc(C(=S)NCCOc2cccc(C(=N)N)c2)cc1 [Compound of Ex. 1, N-[2-(3-amidinophenoxy)ethyl]-4-amidinobenzthioamide bistrifluoroacetate]",IC50,[1]; [2],0.398 µM
same,IC50,human thrombin; [3],398 µM
"CN(C)C(=O)c1ccc(C(=O)NCCOc2cccc(C(=N)N)c2)cc1 [Compound of Ex. 3, N-[2-(3-amidinophenoxy)ethyl]-4-(N,N-dimethylcarbamoyl)benzamide trifluoroacetate]",IC50,[1]; [2],0.0251 µM
"CN(C)C(=N)c1ccc(C(=O)NCCOc2cccc(C(=N)N)c2)cc1 [Compound of Ex. 7, N-[2-(3-amidinophenoxy)ethyl]-4-(N,N-dimethylamidino)benzamide bistrifluoroacetate]",IC50,[1]; [2],0.0794 µM
"N=C(N)c1cccc(OCCNC(=O)c2ccc(C(=O)N3CCCC3)cc2)c1 [Compound of Ex. 9, N-[2-(3-amidinophenoxy)ethyl]-4-(1-pyrrolidinecarbonyl)benzamide trifluoroacetate]",IC50,[1]; [2],0.02 µM
same,IC50,human thrombin; [3],50.1 µM
"N=C(N)c1cccc(OCCNC(=O)c2ccc(/C=C/c3ccncc3)cc2)c1 [Compound of Ex. 10, N-[2-(3-amidinophenoxy)ethyl]-4-[(E)-2-(pyridine-4-yl)vinyl]benzamide bistrifluoroacetate]",IC50,[1]; [2],0.1 µM
same,IC50,human thrombin; [3],126 µM
"N=C(N)c1cccc(OCCNC(=O)c2ccc(CCc3ccncc3)cc2)c1 [Compound of Ex. 14, N-[2-(3-amidinophenoxy)ethyl]-4-[2-(pyridine-4-yl)ethyl]benzamide bistrifluoroacetate]",IC50,[1]; [2],0.0501 µM
same,IC50,human thrombin; [3],20 µM
"N=C(N)c1cccc(OCCNC(=O)c2ccc(N3CCCC3)cc2)c1 [Compound of Ex. 18, N-[2-(3-amidinophenoxy)ethyl]-4-(pyrrolidine-1-yl)benzamide trifluoroacetate]",IC50,[1]; [2],0.0501 µM
same,IC50,human thrombin; [3],39.8 µM
"N=C(N)c1cccc(OCCNC(=O)c2ccc(CC3CCNCC3)cc2)c1 [Compound of Ex. 43, N-[2-(3-amidinophenoxy)ethyl]-4-[(piperidine-4-yl)methyl]benzamide bistrifluoroacetate]",IC50,[1]; [2],0.251 µM
same,IC50,human thrombin; [3],50.1 µM
"CCOC(=O)C[C@H](COc1cccc(C(=N)N)c1)NC(=O)c1ccc(-c2ccccc2)cc1 [Compound of Ex. 54, ethyl (3R)-3-[(biphenyl-4-carbonyl)amino]-4-(3-amidinophenoxy)butyrate trifluoroacetate]",IC50,[1]; [2],0.0501 µM
same,IC50,human thrombin; [3],25.1 µM
"CN(C)C(=O)c1ccc(C(=O)N[C@@H](COc2cccc(C(=N)N)c2)CC(=O)O)cc1 [Compound of Ex. 56, (3R)-4-(3-amidinophenoxy)-3-[(4-dimethylcarbamoylbenzoyl)amino]butyric acid trifluoroacetate]",IC50,[1]; [2],0.0158 µM
same,IC50,human thrombin; [3],> 1000 µM
"N=C(N)Nc1ccc(C(=O)N[C@@H](COc2cccc(C(=N)N)c2)CC(=O)O)cc1 [Compound of Ex. 57, (3R)-4-(3-amidinophenoxy)-3-[(4-guanidinobenzoyl)amino]butyric acid bistrifluoroacetate]",IC50,[1]; [2],0.0126 µM
same,IC50,human thrombin; [3],> 1000 µM
"N=C(N)c1cccc(OC[C@@H](CC(=O)O)NC(=O)c2ccc(N3CCCC3)cc2)c1 [Compound of Ex. 58, (3R)-4-(3-amidinophenoxy)-3-[4-(pyrrolidine-1-yl)benzoylamino]butyric acid trifluoroacetate]",IC50,[1]; [2],0.0251 µM
same,IC50,human thrombin; [3],> 1000 µM
"CCOC(=O)C[C@H](COc1cccc(C(=N)N)c1)NC(=O)c1ccc(N2CCCC2)cc1 [Compound of Ex. 59, ethyl (3R)-4-(3-amidinophenoxy)-3-[4-(pyrrolidine-1-yl)benzoylamino]butyrate trifluoroacetate]",IC50,[1]; [2],0.0398 µM
same,IC50,human thrombin; [3],15.8 µM
"CC(=N)N1CCC(Oc2ccc(C(=O)N[C@@H](COc3cccc(C(=N)N)c3)CC(=O)O)cc2)CC1.O=C(O)C(F)(F)F.O=C(O)C(F)(F)F [Compound of Ex. 62, (3R)-4-(3-amidinophenoxy)-3-[4-(1-acetimidoyl-4-piperidyloxy)benzoylamino]butylic acid bistrifluoroacetate]",Activity of inhibiting activated blood coagulation factor X (pIC50),[1]; [2],7.4
same,Thrombin-inhibiting activity (pIC50),human thrombin; [3],<3.3
"CN(C)C(=O)c1ccc(C(=O)CCCOc2cccc(C(=N)N)c2)cc1 [Compound of Ex. 64, 4-[4-(3-amidinophenoxy)butyryl]-N,N-dimethylbenzamide trifluoroacetate]",IC50,[1]; [2],0.0631 µM
"N=C(N)c1ccc(NC(=O)CCCOc2cccc(C(=N)N)c2)cc1 [Compound of Ex. 67, 4-(3-amidinophenoxy)-N-(4-amidinophenyl)butyramide bistrifluoroacetate]",IC50,[1]; [2],0.316 µM
same,IC50,human thrombin; [3],316 µM
"N=C(N)c1ccc(C(=O)Nc2cccc(COc3cccc(C(=N)N)c3)c2)cc1.O=C(O)C(F)(F)F.O=C(O)C(F)(F)F [Compound of Ex. 69, N-[3-(3-amidinophenoxymethyl)]phenyl-4-amidinobenzamide bistrifluoroacetate]",Activity of inhibiting activated blood coagulation factor X (pIC50),[1]; [2],6.6
same,Thrombin-inhibiting activity (pIC50),human thrombin; [3],4.5
CCOP(=O)(O)c1ccc(S(=O)(=O)N[C@H](COc2cccc(C(=N)N)c2)Cc2ccc(OC3CCN(C(C)=N)CC3)cc2)cc1.O=C(O)C(F)(F)F.O=C(O)C(F)(F)F [Compound of Ex. 73],Activity of inhibiting activated blood coagulation factor X (pIC50),[1]; [2],8.1
same,Thrombin-inhibiting activity (pIC50),human thrombin; [3],3.9
CC(=N)N1CCC(Oc2ccc(C[C@@H](COc3cccc(C(=N)N)c3)NS(=O)(=O)c3ccc(P(=O)(O)O)cc3)cc2)CC1.O=C(O)C(F)(F)F.O=C(O)C(F)(F)F [Compound of Ex. 74],Activity of inhibiting activated blood coagulation factor X (pIC50),[1]; [2],7.6
same,Thrombin-inhibiting activity (pIC50),human thrombin; [3],<3.7
"CC(=N)N1CCC(Oc2ccc(C(=O)NCCOc3cc(C(=N)N)ccc3CC(=O)C(=O)O)cc2)CC1 [Compound of Ex. 79, 3-[4-amidino-2-[2-[4-(1-acetimidoyl-4-piperidyloxy)benzoylamino]ethoxy]phenyl]-2-oxopropionic acid bistrifluoroacetate]",IC50,[1]; [2],0.02 µM
same,IC50,human thrombin; [3],25.1 µM
"CN(C)C(=O)c1ccc(C(=O)NCCOc2cc(C(=N)N)ccc2CC(=O)C(=O)O)cc1 [Compound of Ex. 80, 3-[4-amidino-2-[2-[4-(dimethylcarbamoyl)benzoylamino]ethoxy]phenyl]-2-oxo-propionic acid trifluoroacetate]",IC50,[1]; [2],0.0126 µM
same,IC50,human thrombin; [3],39.8 µM
"N=C(N)c1ccc(CC(=O)C(=O)O)c(OCCNC(=O)c2ccc(CC3CCNCC3)cc2)c1 [Compound of Ex. 81, 3-[4-amidino-2-[2-[4-(4-piperidylmethyl)benzoylamino]ethoxy]phenyl]-2-oxopropionic acid bistrifluoroacetate]",IC50,[1]; [2],0.0794 µM
same,IC50,human thrombin; [3],31.6 µM
"N=C(N)c1ccc(CC(=O)C(=O)O)c(OCCNC(=O)c2ccc(N3CCCC3)cc2)c1 [Compound of Ex. 82, 3-[4-amidino-2-[2-[4-(pyrrolidine-1-yl)benzoylamino]ethoxy]phenyl]-2-oxopropionic acid trifluoroacetate]",IC50,[1]; [2],0.0251 µM
same,IC50,human thrombin; [3],6.31 µM
"N=C(N)c1ccc(C(=O)N[C@@H](CCC(=O)O)COc2cccc(C(=N)N)c2)cc1 [Compound of Ex. 83, (4S)-4-(4-amidinobenzoylamino)-5-(3-amidinophenoxy)pentanoic acid bistrifluoroacetate]",IC50,[1]; [2],0.158 µM
same,IC50,human thrombin; [3],> 1000 µM
"N=C(N)c1ccc(C(=O)N[C@@H](COc2cccc(C(=N)N)c2)Cc2ccc(C(=O)O)cc2)cc1 [Compound of Ex. 90, 4-[(2R)-2-(4-amidinobenzoylamino)-3-(3-amidinophenoxy)propyl]benzoic acid bistrifluoroacetate]",IC50,[1]; [2],0.0398 µM
same,IC50,human thrombin; [3],> 251 µM
"N=C(N)c1ccc(C(=O)N[C@H](CCOc2cccc(C(=N)N)c2)C(=O)O)cc1 [Compound of Ex. 92, (2R)-2-(4-amidinobenzoylamino)-4-(3-amidinophenoxy)butanoic acid bistrifluoroacetate]",IC50,[1]; [2],0.0501 µM
same,IC50,human thrombin; [3],> 1000 µM
"N=C(N)c1cccc(OCCNC(=O)c2cccc(C(=N)N)c2)c1 [Compound of Ex. 96, N-[2-(3-amidinophenoxy)ethyl]-3-amidinobenzamide bistrifluoroacetate]",IC50,[1]; [4],1.58 µM
same,IC50,human thrombin; [5],> 1000 µM
"N=C(N)c1ccc(C(=O)N(CCOc2cccc(C(=N)N)c2)Cc2ccccc2)cc1 [Compound of Ex. 114, N-[2-(3-amidinophenoxy)ethyl]-N-phenylmethyl-4-amidinobenzamide bistrifluoroacetate]",IC50,[1]; [4],0.0501 µM
same,IC50,human thrombin; [5],79.4 µM
"N=C(N)c1ccc(C(=O)N[C@@H](COc2cccc(C(=N)N)c2)CC(=O)O)cc1 [Compound of Ex. 119, (3R)-3-(4-amidinobenzoylamino)-4-(3-amidinophenoxy)butanoic acid bistrifluoroacetate]",IC50,[1]; [4],0.0251 µM
same,IC50,human thrombin; [5],> 1000 µM

# Source: patent publication US7396844B1, “Benzamidine derivatives” (Ajinomoto Co., Inc., priority 1997, dated 2008)
